{"source": "patent US20230372381A1", "about": "“COMPOSITIONS AND METHODS UTILIZING PROTEIN INHIBITORS FOR […] INHIBITION AND TREATMENT OF SARS-CoV-2” (Rensselaer Polytechnic Institute, priority 2020, published 2023)", "key": {"in vitro [1]": {"assay": "in vitro", "settings": "African green monkey", "procedure": "(§1) Cytotoxicity was also performed using the MTT assay (Roche), according to the manufacturer's instructions. Cytotoxicity was performed in uninfected VeroE6 cells with same compound dilutions and concurrent with viral replication assay. All assays were performed in biologically independent triplicates."}, "SARS-CoV-2 [2]": {"tested_on": "SARS-CoV-2", "assay": "microbe, parasite or virus in culture", "type": "cell-based"}, "in vitro [3]": {"assay": "in vitro", "settings": "human"}, "SARS-CoV-2 [4]": {"tested_on": "SARS-CoV-2", "assay": "SARS-CoV-2 viral replication assay in Vero E6 cells", "type": "cell-based"}, "SARS-CoV-2 [5]": {"tested_on": "SARS-CoV-2", "assay": "Combination antiviral (synergy) assay with remdesivir", "type": "cell-based", "settings": "for Synergy Score: combination with remdesivir, SynergyFinder, ZIP method; for interaction with remdesivir (additive or synergistic): inhibition of SARS-CoV-2 replication in combination with remdesivir"}, "SARS-CoV-2 M^pro [6]": {"biological_target": "T1, SARS-CoV-2 M^pro (Severe acute respiratory syndrome coronavirus 2, UniProt P0DTD1)", "assay": "M^pro protease inhibition (FRET assay)", "type": "biochemical", "settings": "for Relative M^pro Inhibition: estimated IC50 class"}, "SARS-CoV-2 PL^pro": {"biological_target": "SARS-CoV-2 PL^pro (Severe acute respiratory syndrome coronavirus 2, UniProt P0DTD1)", "assay": "PL^pro fluorescence proteolysis assay (zRLRGG/AMC substrate)", "type": "biochemical", "settings": "for Relative PL^pro Inhibition: estimated IC50 class"}, "HEK 293T cells": {"tested_on": "HEK 293T cells", "assay": "Cytotoxicity in HEK 293T cells", "settings": "cytotoxicity, HEK 293T Cells"}, "Vero E6 cells": {"tested_on": "Vero E6 cells", "assay": "Cytotoxicity MTT assay in Vero E6 cells", "settings": "cytotoxicity, Vero E6 Cells", "procedure": "as §1"}, "SARS-CoV-2 M^pro [7]": {"biological_target": "T1, SARS-CoV-2 M^pro", "assay": "M^pro 1D 1H-NMR proteolysis assay", "type": "biochemical", "settings": "50 μM inhibitor"}, "[8]": {"assay": "Cytotoxicity MTT assay in Vero E6 cells", "settings": "African green monkey", "procedure": "as §1"}, "[9]": {"assay": "Cytotoxicity in HEK 293T cells", "settings": "human"}, "[10]": {"settings": "Severe acute respiratory syndrome coronavirus 2, viral replication, HEK 293T Cells (hACE2-293T), read-out: IC50"}, "[11]": {"settings": "Severe acute respiratory syndrome coronavirus 2, Vero C1008, viral replication, Vero E6 Cells, read-out: IC50"}, "[12]": {"settings": "Severe acute respiratory syndrome coronavirus 2, HEK-293T"}, "[13]": {"settings": "Severe acute respiratory syndrome coronavirus 2, Vero C1008"}}, "note": "“Also recorded” adds a separate entry of the source. Where two headings read alike, the source gives them in different places."}
{"smiles": "CC(C)(C)NC(=O)N[C@H](C(=O)N1C[C@H]2[C@@H]([C@H]1C(=O)NC(CC1CCC1)C(=O)C(N)=O)C2(C)C)C(C)(C)C", "note": "(stereo partly drawn) [BOC, boceprevir]", "values": [{"measurement": "CC50", "setting": "in vitro [1]", "result": "> 50", "unit": "µM"}, {"measurement": "IC50", "setting": "SARS-CoV-2 [2]; [10]", "result": 5.4, "unit": "µM"}, {"measurement": "CC50", "setting": "in vitro [3]", "result": "> 50", "unit": "µM"}, {"measurement": "IC50", "setting": "SARS-CoV-2 [4]; [11]", "result": 19.6, "unit": "µM"}, {"measurement": "Synergy Score", "setting": "SARS-CoV-2 [5]", "result": "−7.6"}]}
{"smiles": "CC(=O)Nc1ccc(C)c(C(=O)N[C@H](C)c2cccc3ccccc23)c1", "note": "[Compound 6]", "values": [{"measurement": "interaction with remdesivir (additive or synergistic)", "setting": "SARS-CoV-2 [5]", "result": "synergy with remdesivir"}, {"measurement": "inhibition of M^pro activity (words)", "setting": "SARS-CoV-2 M^pro [6]", "result": "not M^pro"}, {"measurement": "inhibition of PL^pro protease activity (words)", "setting": "SARS-CoV-2 PL^pro", "result": "specifically inhibits PL^pro"}]}
{"smiles": "C=C[C@@H]1C[C@]1(NC(=O)[C@@H]1C[C@@H]2CN1C(=O)[C@H](C(C)(C)C)NC(=O)O[C@@H]1C[C@H]1CCCCCc1nc3ccc(OC)cc3nc1O2)C(=O)NS(=O)(=O)C1CC1.O", "note": "[GRZ, grazoprevir]", "values": [{"measurement": "IC50", "setting": "SARS-CoV-2 [2]; viral replication, HEK 293T Cells (hACE2-293T), read-out: IC50", "result": 16.7, "unit": "µM"}, {"measurement": "IC50", "setting": "SARS-CoV-2 [4]; viral replication, Vero E6 Cells, read-out: IC50", "result": 10.8, "unit": "µM"}, {"measurement": "Synergy Score", "setting": "SARS-CoV-2 [5]", "result": "+25.0"}, {"measurement": "interaction with remdesivir (additive or synergistic)", "setting": "SARS-CoV-2 [5]", "result": "synergistic"}, {"measurement": "interaction with remdesivir (additive or synergistic)", "setting": "SARS-CoV-2 [5]; listed as grazoprevir", "result": "synergized with remdesivir"}, {"measurement": "CC50", "setting": "HEK 293T cells", "result": "> 50", "unit": "µM"}, {"measurement": "inhibition of M^pro activity (words)", "setting": "SARS-CoV-2 M^pro [6]", "result": "moderately inhibit; also recorded: inhibited both M^pro and PL^pro"}, {"measurement": "Relative M^pro Inhibition", "setting": "SARS-CoV-2 M^pro [6]", "result": "moderate (moderate to an estimated IC50 in the range 20-50 μM)"}, {"measurement": "CC50", "setting": "Vero E6 cells", "result": "> 50", "unit": "µM"}, {"measurement": "inhibition of PL^pro protease activity (words)", "setting": "SARS-CoV-2 PL^pro", "result": "did inhibit PL^pro protease activity"}, {"measurement": "Relative PL^pro Inhibition", "setting": "SARS-CoV-2 PL^pro", "result": "moderate (moderate to an estimated IC50 in the range 20-50 μM)"}, {"measurement": "M^pro inhibition in the NMR assay", "setting": "SARS-CoV-2 M^pro [7]", "result": "moderate inhibitors of M^pro"}]}
{"smiles": "CCCC[C@H](NC(=O)[C@@H]1[C@@H]2[C@H](CN1C(=O)[C@@H](NC(=O)NC1(CS(=O)(=O)C(C)(C)C)CCCCC1)C(C)(C)C)C2(C)C)C(=O)C(=O)NC1CC1", "note": "[NAR, narlaprevir]", "values": [{"measurement": "IC50", "setting": "SARS-CoV-2 [2]; [12]", "result": 15, "unit": "µM"}, {"measurement": "IC50", "setting": "SARS-CoV-2 [4]; [13]", "result": 7.7, "unit": "µM"}, {"measurement": "Synergy Score", "setting": "SARS-CoV-2 [5]", "result": "−3.6"}, {"measurement": "CC50", "setting": "HEK 293T cells", "result": 72, "unit": "µM"}, {"measurement": "CC50", "setting": "[8]", "result": "> 20", "unit": "µM"}]}
{"smiles": "Cc1cnc(C(=O)N[C@H]2CCCCC/C=C\\[C@@H]3C[C@@]3(C(=O)NS(=O)(=O)C3CC3)NC(=O)[C@@H]3C[C@@H](Oc4nc5ccccc5c5ccccc45)CN3C2=O)cn1", "note": "[PAR, paritaprevir]", "values": [{"measurement": "CC50", "setting": "in vitro [1]", "result": "> 100", "unit": "µM"}, {"measurement": "IC50", "setting": "SARS-CoV-2 [2]; [10]", "result": 0.55, "unit": "µM"}, {"measurement": "CC50", "setting": "in vitro [3]", "result": "> 100", "unit": "µM"}, {"measurement": "IC50", "setting": "SARS-CoV-2 [4]; [11]", "result": 6, "unit": "µM"}, {"measurement": "Synergy Score", "setting": "SARS-CoV-2 [5]", "result": "+17.3"}, {"measurement": "interaction with remdesivir (additive or synergistic)", "setting": "SARS-CoV-2 [5]", "result": "synergistic"}, {"measurement": "interaction with remdesivir (additive or synergistic)", "setting": "SARS-CoV-2 [5]; listed as paritaprevir", "result": "synergized with remdesivir"}, {"measurement": "inhibition of M^pro activity (words)", "setting": "SARS-CoV-2 M^pro [6]", "result": "not M^pro"}, {"measurement": "Relative M^pro Inhibition", "setting": "SARS-CoV-2 M^pro [6]", "result": "none (none indicates no observed inhibition of protease activity at drug concentrations of 50 μM)"}, {"measurement": "inhibition of PL^pro protease activity (words)", "setting": "SARS-CoV-2 PL^pro", "result": "did inhibit PL^pro protease activity"}, {"measurement": "Relative PL^pro Inhibition", "setting": "SARS-CoV-2 PL^pro", "result": "moderate (moderate to an estimated IC50 in the range 20-50 μM)"}]}
{"smiles": "COc1ccc2c(O[C@@H]3C[C@H]4C(=O)N[C@]5(C(=O)NS(=O)(=O)C6CC6)C[C@H]5/C=C\\CCCCN(C)C(=O)[C@@H]4C3)cc(-c3nc(C(C)C)cs3)nc2c1C", "note": "[SIM, simeprevir]", "values": [{"measurement": "IC50", "setting": "SARS-CoV-2 [2]; [10]", "result": 2.3, "unit": "µM"}, {"measurement": "CC50", "setting": "in vitro [3]", "result": "> 50", "unit": "µM"}, {"measurement": "IC50", "setting": "SARS-CoV-2 [4]; [11]", "result": 4.2, "unit": "µM"}, {"measurement": "Synergy Score", "setting": "SARS-CoV-2 [5]", "result": "+30.2"}, {"measurement": "interaction with remdesivir (additive or synergistic)", "setting": "SARS-CoV-2 [5]", "result": "synergistic"}, {"measurement": "interaction with remdesivir (additive or synergistic)", "setting": "SARS-CoV-2 [5]; listed as simeprevir", "result": "synergized with remdesivir"}, {"measurement": "inhibition of M^pro activity (words)", "setting": "SARS-CoV-2 M^pro [6]", "result": "moderately inhibit; also recorded: inhibited both M^pro and PL^pro"}, {"measurement": "Relative M^pro Inhibition", "setting": "SARS-CoV-2 M^pro [6]", "result": "moderate (moderate to an estimated IC50 in the range 20-50 μM)"}, {"measurement": "CC50", "setting": "Vero E6 cells", "result": 2.1, "unit": "µM"}, {"measurement": "inhibition of PL^pro protease activity (words)", "setting": "SARS-CoV-2 PL^pro", "result": "did inhibit PL^pro protease activity"}, {"measurement": "Relative PL^pro Inhibition", "setting": "SARS-CoV-2 PL^pro", "result": "strong (Strong inhibition corresponds to an estimated IC50 < about 20 μM)"}, {"measurement": "M^pro inhibition in the NMR assay", "setting": "SARS-CoV-2 M^pro [7]", "result": "moderate inhibitors of M^pro"}]}
{"smiles": "CC[C@@H]1C[C@]1(NC(=O)[C@@H]1C[C@@H]2CN1C(=O)[C@H](C(C)(C)C)NC(=O)OCC(C)(C)CCCCc1cccc3c1CN(C3)C(=O)O2)C(=O)NS(=O)(=O)C1CC1", "note": "[VAN, vaniprevir]", "values": [{"measurement": "IC50", "setting": "SARS-CoV-2 [2]; [12]", "result": 3, "unit": "µM"}, {"measurement": "IC50", "setting": "SARS-CoV-2 [4]; [13]", "result": 6.2, "unit": "µM"}, {"measurement": "Synergy Score", "setting": "SARS-CoV-2 [5]", "result": "+10.9"}, {"measurement": "interaction with remdesivir (additive or synergistic)", "setting": "SARS-CoV-2 [5]", "result": "synergistic"}, {"measurement": "interaction with remdesivir (additive or synergistic)", "setting": "SARS-CoV-2 [5]; listed as vaniprevir", "result": "synergized with remdesivir"}, {"measurement": "CC50", "setting": "[9]", "result": "> 50", "unit": "µM"}, {"measurement": "Relative M^pro Inhibition", "setting": "SARS-CoV-2 M^pro [6]", "result": "strong (Strong inhibition corresponds to an estimated IC50 < about 20 μM)"}, {"measurement": "inhibition of M^pro activity (words)", "setting": "SARS-CoV-2 M^pro [6]; listed as Vaniprevir", "result": "good inhibitor of both M^pro and PL^pro"}, {"measurement": "inhibition of M^pro activity (words)", "setting": "SARS-CoV-2 M^pro [6]; listed as vaniprevir", "result": "inhibited both M^pro and PL^pro"}, {"measurement": "CC50", "setting": "Vero E6 cells", "result": 4.3, "unit": "µM"}, {"measurement": "Relative PL^pro Inhibition", "setting": "SARS-CoV-2 PL^pro", "result": "strong (Strong inhibition corresponds to an estimated IC50 < about 20 μM)"}, {"measurement": "inhibition of PL^pro protease activity (words)", "setting": "SARS-CoV-2 PL^pro; listed as Vaniprevir", "result": "good inhibitor of both M^pro and PL^pro"}, {"measurement": "inhibition of PL^pro protease activity (words)", "setting": "SARS-CoV-2 PL^pro; listed as vaniprevir", "result": "did inhibit PL^pro protease activity"}, {"measurement": "M^pro inhibition in the NMR assay", "setting": "SARS-CoV-2 M^pro [7]", "result": "inhibitory activity comparable to telaprevir"}]}
{"smiles": "C=C[C@@H]1C[C@]1(NC(=O)[C@@H]1C[C@@H](Oc2ncc(OC)c3ccc(Cl)cc23)CN1C(=O)[C@@H](NC(=O)OC(C)(C)C)C(C)(C)C)C(=O)NS(=O)(=O)C1CC1", "note": "[asunaprevir]", "values": [{"measurement": "inhibition of M^pro activity (words)", "setting": "SARS-CoV-2 M^pro [6]", "result": "moderately inhibit"}]}
